Experiment [1] deals with T1, MAPK10A (Homo sapiens, UniProt P53779).
T1 construct: purchased in-house DSF panel (SGC-style construct names; the trailing A/B is a construct suffix)
Briefly: DSF assay. Type of experiment: binding. As to conditions: 20 µM compound.

For experiment [2], the target named is T2, SRCA (Homo sapiens, UniProt P12931).
T2 construct: purchased in-house DSF panel (SGC-style construct names; the trailing A/B is a construct suffix)
Description: DSF assay. It is filed as binding. Particulars: 20 µM compound.

In experiment [3] the target is T3, PHKG2A (Homo sapiens, UniProt P15735).
T3 construct: purchased in-house DSF panel (SGC-style construct names; the trailing A/B is a construct suffix)
T3 sequence (P15735 6-293): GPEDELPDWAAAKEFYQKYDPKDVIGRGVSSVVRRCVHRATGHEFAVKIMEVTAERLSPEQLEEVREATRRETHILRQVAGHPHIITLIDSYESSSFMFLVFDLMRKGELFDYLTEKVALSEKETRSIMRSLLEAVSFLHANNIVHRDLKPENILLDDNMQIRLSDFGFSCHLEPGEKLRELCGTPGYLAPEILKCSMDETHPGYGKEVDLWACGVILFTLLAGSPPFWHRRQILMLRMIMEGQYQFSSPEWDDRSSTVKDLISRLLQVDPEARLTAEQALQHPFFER
Briefly: DSF assay. Type of experiment: binding. As to conditions: 20 µM compound.

In experiment [4] the target is T4, CSNK2A2A (Homo sapiens, UniProt P19784).
T4 construct: purchased in-house DSF panel (SGC-style construct names; the trailing A/B is a construct suffix)
Briefly: DSF assay. Type of experiment: binding. As to conditions: 20 µM compound.

The target in experiment [5] is T5, MAPK15A (Homo sapiens, UniProt Q8TD08).
T5 construct: purchased in-house DSF panel (SGC-style construct names; the trailing A/B is a construct suffix)
T5 sequence (Q8TD08 1-345): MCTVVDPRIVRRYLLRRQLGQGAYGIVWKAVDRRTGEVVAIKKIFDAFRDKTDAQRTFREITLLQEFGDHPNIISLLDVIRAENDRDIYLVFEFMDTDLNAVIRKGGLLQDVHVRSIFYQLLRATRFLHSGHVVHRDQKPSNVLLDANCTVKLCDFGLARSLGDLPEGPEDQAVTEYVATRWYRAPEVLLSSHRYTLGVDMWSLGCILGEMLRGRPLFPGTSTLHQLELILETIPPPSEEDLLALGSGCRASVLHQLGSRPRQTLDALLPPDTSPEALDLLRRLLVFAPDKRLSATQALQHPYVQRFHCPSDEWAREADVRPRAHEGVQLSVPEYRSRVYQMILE
Briefly: DSF assay. It is filed as binding. Particulars: 20 µM compound.

The target of experiment [6] is T6, kinase protein levels in MCF-7 cells (Homo sapiens, UniProt A0A0B4J2F0).
T6 construct: endogenous in cells; host or cells: MCF-7
T6 sequence (A0A0B4J2F0 1-54): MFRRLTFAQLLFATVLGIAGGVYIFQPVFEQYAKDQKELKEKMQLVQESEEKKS
Description: TMT-labeled quantitative proteomics. Type of experiment: cell-based. As to conditions: protein PIGBOS1, MCF7, 1 µM.

T1 sequence (P53779 whole entry): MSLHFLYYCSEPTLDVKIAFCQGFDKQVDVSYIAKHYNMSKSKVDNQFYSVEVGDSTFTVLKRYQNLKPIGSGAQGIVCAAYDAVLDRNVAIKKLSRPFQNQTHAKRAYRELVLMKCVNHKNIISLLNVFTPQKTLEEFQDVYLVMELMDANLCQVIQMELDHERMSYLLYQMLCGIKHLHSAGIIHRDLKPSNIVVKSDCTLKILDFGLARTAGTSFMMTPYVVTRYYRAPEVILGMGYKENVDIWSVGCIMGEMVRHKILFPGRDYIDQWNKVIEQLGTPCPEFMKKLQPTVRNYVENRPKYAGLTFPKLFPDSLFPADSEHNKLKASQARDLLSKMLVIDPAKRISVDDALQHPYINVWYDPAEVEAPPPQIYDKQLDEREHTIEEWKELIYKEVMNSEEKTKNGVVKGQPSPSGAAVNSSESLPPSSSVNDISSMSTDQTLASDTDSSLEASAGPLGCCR
T2 sequence (P12931 254-536): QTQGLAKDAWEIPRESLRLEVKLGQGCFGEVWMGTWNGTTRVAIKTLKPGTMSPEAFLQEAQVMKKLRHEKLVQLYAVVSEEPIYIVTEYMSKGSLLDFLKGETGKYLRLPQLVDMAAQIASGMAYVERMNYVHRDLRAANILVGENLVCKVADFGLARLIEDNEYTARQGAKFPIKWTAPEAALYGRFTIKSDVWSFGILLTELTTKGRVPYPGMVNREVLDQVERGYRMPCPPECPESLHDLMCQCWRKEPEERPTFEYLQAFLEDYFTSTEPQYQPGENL
T4 sequence (P19784 whole entry): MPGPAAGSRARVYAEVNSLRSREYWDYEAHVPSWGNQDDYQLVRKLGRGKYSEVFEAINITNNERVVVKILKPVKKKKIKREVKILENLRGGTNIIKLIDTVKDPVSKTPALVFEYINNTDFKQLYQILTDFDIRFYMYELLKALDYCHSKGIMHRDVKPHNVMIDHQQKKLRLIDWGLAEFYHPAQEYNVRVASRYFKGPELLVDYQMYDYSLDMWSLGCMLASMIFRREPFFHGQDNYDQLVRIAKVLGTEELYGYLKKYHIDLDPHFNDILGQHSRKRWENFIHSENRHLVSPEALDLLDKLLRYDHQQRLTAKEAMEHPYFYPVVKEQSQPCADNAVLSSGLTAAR

Turning to `CC(C)(C)OC(=O)NCCOCCOCCOCCOCCC(=O)N1CCN(c2cc(Nc3cc(C4CC4)[nH]n3)nc(Nc3ccc(CC#N)cc3)n2)CC1` [4-L], the ΔTm at 20 µM in experiment [1] worked out at 5.76 °C; in experiment [2], 7.07 °C; in experiment [3], 8.76 °C; in experiment [4], 8.28 °C; in experiment [5] it was 16.4 °C.
Regarding `CC(=O)N[C@H](C(=O)N1C[C@H](O)C[C@H]1C(=O)NCc1ccc(-c2scnc2C)cc1OCCOCCOCCOCCNC(=O)c1cc(Nc2cc(C3CC3)[nH]n2)nc(Nc2ccc(CC#N)cc2)n1)C(C)(C)C` [5-b], in experiment [6] (set2), the “P.Value (compound/DMSO)” value came to 0.8938 and the “log2FC (compound/DMSO)” value stood at 0.0131.
Take `CC(=O)N[C@H](C(=O)N1C[C@H](O)C[C@H]1C(=O)NCc1ccc(-c2scnc2C)cc1OCCOCCOCCOCCOCCC(=O)N1CCN(c2ccc(Nc3ncc(Cl)c(Nc4ccccc4C(N)=O)n3)cc2)CC1)C(C)(C)C` [6-e]: in experiment [6] (set2), the “P.Value (compound/DMSO)” value came out at 0.4063 and the “log2FC (compound/DMSO)” value was found to be 0.08613.
As for `Cc1ncsc1-c1ccc(CNC(=O)[C@@H]2C[C@@H](O)CN2C(=O)[C@@H](NC(=O)CCOCCOCCNC(=O)c2cc(Nc3cc(C4CC4)[nH]n3)nc(Nc3ccc(CC#N)cc3)n2)C(C)(C)C)cc1` [5-a], in experiment [6] (set1.1), the “P.Value (compound/DMSO)” value was found to be 0.533 and the “log2FC (compound/DMSO)” value was 0.05527.
In the case of `CCOC(=O)c1cc(Nc2cc(C3CC3)[nH]n2)nc(Nc2ccc(CC#N)cc2)n1` [compound 5], the ΔTm at 20 µM in experiment [1] stood at 5.33 °C; in experiment [2], 3.24 °C; in experiment [3] it was 7.46 °C; in experiment [4], 7.92 °C; in experiment [5] it was 14.8 °C.
`Cc1ncsc1-c1ccc(CNC(=O)[C@@H]2C[C@@H](O)CN2C(=O)[C@@H](NC(=O)CCOCCOCCOCCN2CCN(c3cc(Nc4cc(C5CC5)[nH]n4)nc(Nc4ccc(CC#N)cc4)n3)CC2)C(C)(C)C)cc1` [4-a]: in experiment [6] (set1.1), the “P.Value (compound/DMSO)” value is reported as 0.3761 and the “log2FC (compound/DMSO)” value turned out to be 0.1046.
Regarding `Cc1ncsc1-c1ccc(CNC(=O)[C@@H]2C[C@@H](O)CN2C(=O)[C@@H](NC(=O)CCOCCOCCOCCOCCN2CCN(c3ccc(Nc4ncc(Cl)c(Nc5ccccc5C(N)=O)n4)cc3)CC2)C(C)(C)C)cc1` [6-b], in experiment [6] (set1.1), the “P.Value (compound/DMSO)” value came out at 0.6062 and the “log2FC (compound/DMSO)” value is given as -0.04609.
On to `CC(C)(C)OC(=O)NCCCOCCOCCOCCCNC(=O)c1cc(Nc2cc(C3CC3)[nH]n2)nc(Nc2ccc(CC#N)cc2)n1` [5-L], for which the ΔTm at 20 µM in experiment [1] turned out to be 6.08 °C; in experiment [2] it was 2.2 °C; in experiment [3] it was 5.86 °C; in experiment [4], 6.77 °C; in experiment [5], 17 °C.

The values above are taken from paper PMC11851430, “Workflow for E3 Ligase Ligand Validation for PROTAC Development” (ACS Chemical Biology, 2025).
